Measurements published in ChEMBL document CHEMBL1201862, “PubChem BioAssay data set” (2004).
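Interpolation was linear, between the two tested concentrations surrounding the appropriate level; five concentrations were tested over 48 hours in 96-well plates. GI50: concentration for 50% inhibition of growth.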 Active and inactive are the calls of the source. Rule as the data show it: active = GI50 up to about 1.1 µM and inactive = higher.

Legend:
Experiment in all cases: DTP human tumour cell line panel, 48 h
[1] = test system: TK-10
[2] = test system: RPMI-8226
[3] = test system: IGROV-1
[4] = test system: M14
[5] = test system: SF-268
[6] = test system: SNB-75
[7] = test system: SF-539
[8] = test system: CCRF-CEM
[9] = test system: NCI-H226
[10] = test system: SK-MEL-28
[11] = test system: SK-MEL-5
[12] = test system: NCI-H23
[13] = test system: HCT-116
[14] = test system: HCT-15
[15] = test system: KM12
[16] = test system: SR
[17] = test system: 786-0
[18] = test system: PC-3
[19] = test system: T47D
[20] = test system: BT-549

| Structure (SMILES) | GI50 [1] | GI50 [2] | GI50 [3] | GI50 [4] | GI50 [5] | GI50 [6] | GI50 [7] | GI50 [8] | GI50 [9] | GI50 [10] | GI50 [11] | GI50 [12] | GI50 [13] | GI50 [14] [µM] | GI50 [15] | GI50 [16] | GI50 [17] | GI50 [18] | GI50 [19] | GI50 [20] |
| --- | --- | --- | --- | --- | --- | --- | --- | --- | --- | --- | --- | --- | --- | --- | --- | --- | --- | --- | --- | --- |
| C(/C=C/N1CCCC1)=C\c1nc(N2CCCC2)c2ccccc2n1 | 41 µM (inactive) | 17.4 µM (inactive) | 21.6 µM (inactive) | 18 µM (inactive) | 23.9 µM (inactive) | 16.6 µM (inactive) | 18.3 µM (inactive) | 13.2 µM (inactive) | 16.7 µM (inactive) | 22.9 µM (inactive) | 19.1 µM (inactive) | 18.2 µM (inactive) | 19.7 µM (inactive) | 16.4 | 17.1 µM (inactive) | 13.6 µM (inactive) | 16.6 µM (inactive) | – | – | – |
| COc1ccc(OC)c2c1C=C[C@H](C1(C)SCCS1)C2C(C)=O (stereo not given in full) | 40.2 µM (inactive) | 18.6 µM (inactive) | 42.4 µM (inactive) | 31.2 µM (inactive) | 29.6 µM (inactive) | – | 23.1 µM (inactive) | 27.7 µM (inactive) | 24 µM (inactive) | 24.8 µM (inactive) | 17.2 µM (inactive) | 22.6 µM (inactive) | 23 µM (inactive) | 33.1 | 32.4 µM (inactive) | 19.6 µM (inactive) | 31.7 µM (inactive) | 26.7 µM (inactive) | 24.2 µM (inactive) | – |
| Cc1cc(C)c(N[S+]([O-])c2cccc(Cl)c2)c(C)c1 (stereo not given) | > 100 µM (inactive) | > 100 µM (inactive) | – | > 100 µM (inactive) | > 100 µM (inactive) | – | > 100 µM (inactive) | > 100 µM (inactive) | > 100 µM (inactive) | > 100 µM (inactive) | – | > 100 µM (inactive) | > 100 µM (inactive) | > 100 | > 100 µM (inactive) | > 100 µM (inactive) | > 100 µM (inactive) | > 100 µM (inactive) | – | > 100 µM (inactive) |
| CC1(O)Oc2ccc3ccccc3c2C=C1C(N)=O (stereo not given) | > 100 µM (inactive) | 33.3 µM (inactive) | 79.8 µM (inactive) | 66.4 µM (inactive) | 71.9 µM (inactive) | 52 µM (inactive) | 42.1 µM (inactive) | 86.5 µM (inactive) | – | > 100 µM (inactive) | 58.6 µM (inactive) | > 100 µM (inactive) | > 100 µM (inactive) | 53.7 | > 100 µM (inactive) | 46.5 µM (inactive) | > 100 µM (inactive) | 64.9 µM (inactive) | 36.6 µM (inactive) | – |
| O=S(=O)(c1ccccc1)N1CN2CN(C1)CN(S(=O)(=O)c1ccccc1)C2 | > 100 µM (inactive) | > 100 µM (inactive) | > 100 µM (inactive) | > 100 µM (inactive) | – | 22.7 µM (inactive) | > 100 µM (inactive) | – | > 100 µM (inactive) | > 100 µM (inactive) | > 100 µM (inactive) | > 100 µM (inactive) | > 100 µM (inactive) | > 100 | > 100 µM (inactive) | > 100 µM (inactive) | > 100 µM (inactive) | > 100 µM (inactive) | – | > 100 µM (inactive) |
| Nc1ncc(Cc2nc3ccccc3s2)s1 | 85.5 µM (inactive) | 18.5 µM (inactive) | 63.8 µM (inactive) | 42.3 µM (inactive) | > 100 µM (inactive) | > 100 µM (inactive) | > 100 µM (inactive) | 30.3 µM (inactive) | 24.6 µM (inactive) | > 100 µM (inactive) | 28.6 µM (inactive) | > 10 µM (inactive) | 52.1 µM (inactive) | > 100 | 56.4 µM (inactive) | – | > 100 µM (inactive) | 63.5 µM (inactive) | 48.6 µM (inactive) | – |
| C[N+](C)(C)CC(=O)N/N=C\c1c(O)ccc2ccccc12 | 28.2 µM (inactive) | 32.1 µM (inactive) | 20 µM (inactive) | 31.5 µM (inactive) | 10.7 µM (inactive) | 16.8 µM (inactive) | 31.5 µM (inactive) | 27.8 µM (inactive) | 21 µM (inactive) | 48.2 µM (inactive) | 16.2 µM (inactive) | 36 µM (inactive) | 42.6 µM (inactive) | 27.7 | 32.4 µM (inactive) | 33.2 µM (inactive) | 37.8 µM (inactive) | 37.6 µM (inactive) | 32.9 µM (inactive) | – |
| C/C=C/C=N/N(c1nnc(-c2ccccc2)c(-c2ccccc2)n1)S(=O)(=O)c1ccc(C)cc1 | 14.9 µM (inactive) | 4.19 µM (inactive) | 13.1 µM (inactive) | 4.69 µM (inactive) | 5.46 µM (inactive) | 3.61 µM (inactive) | 11.5 µM (inactive) | 2.49 µM (inactive) | 15.3 µM (inactive) | 13.5 µM (inactive) | 8.22 µM (inactive) | 14 µM (inactive) | 8.09 µM (inactive) | 5.14 | 9.06 µM (inactive) | 3.48 µM (inactive) | 6.78 µM (inactive) | – | – | – |
